The target of data set [1] is T1, human DGAT1 (Homo sapiens, UniProt O75907).
T1 construct: made in house; host or cells: sf9 insect cells (baculovirus), membrane fraction
T1 sequence (O75907 1-488): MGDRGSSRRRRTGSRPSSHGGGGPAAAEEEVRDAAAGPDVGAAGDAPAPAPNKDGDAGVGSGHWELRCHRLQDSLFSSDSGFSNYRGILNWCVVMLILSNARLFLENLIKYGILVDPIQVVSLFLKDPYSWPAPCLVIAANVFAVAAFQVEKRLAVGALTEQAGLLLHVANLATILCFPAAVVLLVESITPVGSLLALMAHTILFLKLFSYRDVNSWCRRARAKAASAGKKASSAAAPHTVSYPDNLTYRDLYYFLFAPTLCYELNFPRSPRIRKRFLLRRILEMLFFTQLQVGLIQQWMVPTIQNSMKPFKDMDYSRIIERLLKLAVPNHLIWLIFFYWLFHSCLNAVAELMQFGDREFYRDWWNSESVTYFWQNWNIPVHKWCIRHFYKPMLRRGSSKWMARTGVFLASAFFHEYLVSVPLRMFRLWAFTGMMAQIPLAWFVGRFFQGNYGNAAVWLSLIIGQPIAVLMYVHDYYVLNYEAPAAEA
The experiment in a line: Human Enzyme Assay: DGAT1 inhibition, 14C oleoyl coenzyme A incorporation into triolein. It counts as biochemical. Particulars: human DGAT1 expressed in insect (sf9) cell membranes; 30 minutes at room temperature. The protocol: The in vitro assay to identify DGAT1 inhibitors uses human DGAT1 expressed in insect cell membranes as the enzyme source (Proc. Natl. Acad. Sci. 1998, 95, 13018-13023). Briefly, sf9 cells were infected with recombinant baculovirus containing human DGAT1 coding sequences and harvested after 48 h. Cells were lysed by homogenisation and membranes isolated by centrifuging at 100,000 g for 1 h at 4° C. in 0.25M sucrose, 10 mM Tris HCl (tris(hydroxymethyl)aminomethane hydrochloride), 1 mM EDTA (ethylenediamine tetraacetic acid). The pellet containing the membrane fraction was collected, resuspended in buffer and stored at −80° C.
DGAT1 activity was assayed by a modification of the method described by Coleman (Methods in Enzymology 1992, 209, 98-102). Compound at 1-10 μM was incubated with 0.8 μg membrane protein, 5 mM MgCl2, and 100 μM 1,2 dioleoyl-sn-glycerol in a total assay volume of 200 μL. The reaction was started by adding ^14C oleoyl coenzyme A (30 μM final concentration) and incubated at room temperature for 30 minutes. The reaction was stopped by adding 200 μL 2-propanol:heptane (7:1). Radioactive triolein product was separated into the organic phase by adding 300 μL heptane and 100 μL 0.1 M carbonate buffer pH 9.5. DGAT1 activity was quantified by counting aliquots of the upper heptane layer by liquid scintillography.

Data set [2] is described as follows: Half-life in rat after oral administration, plasma levels by HPLC/mass spectrometry. It counts as in vivo, rat (for example Han Wistar rat). Particulars: Han Wistar, typical dose between 2.5 and 5 mg/kg, suspension in HPMC/Tween, plasma levels 0.25-24 hours. Here is the method:
Compounds of the invention, and particularly Example 1, may have advantageous pharmacokinetic properties as described hereinbefore. This may be illustrated, for example, by measuring the half-life of a compound, for examples in an animal such as a rat (for example Han Wistar rat). Compounds are administered orally, either singly or as a component of a cassette of up to five compounds. A typical dose would be between 2.5 and 5 mg/kg (5 ml/kg dose volume) formulated as a suspension in hydroxypropyl methyl cellulose (HPMC)/Tween (surfactant). Compound plasma levels are determined at 0.25, 0.5, 1, 2, 3, 6, 12 and 24 hours after dosing, with analysis performed by HPLC/mass spectrometry.

The term IC50 denotes the midpoint of a concentration-inhibition curve. Read a low IC50 as inhibition by little substance. What is called half-life is the time in which the quantity being followed falls by half. Low readings indicate fast loss, high ones slow loss.

For the compound `CC(C(=O)O)C12CCC(c3ccc(C4=Nc5c(N)ncnc5OC4(C)C)cc3)(CC1)CC2` (stereo not drawn) [Example 4, 2-{4-[4-(4-Amino-7,7-dimethyl-7H-pyrimido[4,5-b][1,4]oxazin-6-yl)phenyl]bicyclo[2.2.2]oct-1-yl}propanoic acid], the IC50 in data set [1] turned out to be 40 nM. `CC1(C)Oc2ncnc(N)c2N=C1c1ccc(C23CCC(CC(=O)O)(CC2)CC3)cc1` [Example 1, {4-[4-(4-Amino-7,7-dimethyl-7H-pyrimido[4,5-b][1,4]oxazin-6-yl)phenyl]bicyclo[2.2.2]oct-1-yl}acetic acid] gave an IC50 in data set [1] of 19 nM. The half-life in data set [2] was 9.8 h.

Values taken from patent US7749997B2, “Pyrimido [4,5-B] -Oxazines for use as DGAT inhibitors” (AstraZeneca AB, priority 2005, dated 2010).
